Molecules are shown by their SMILES. Where two headings read alike, the source gives them in different places. Starred links: 1 amine or outer side, 2 acyl side, 3 side chain; linkers in the order of their positions; H or OH if unused. Positions of bridges follow the written chain, without caps; N, C: chain ends. Non-standard residues stand in square brackets, D forms with d. Residues, ends and D or L forms follow the SMILES beside them. *: point of attachment. NMePhe(3-Cl) = CN[C@@H](Cc1cccc(Cl)c1)C(=O)O; NMeF = CN[C@@H](Cc1ccccc1)C(=O)O; NMeβAla = CN(CCC(=O)[*:2])[*:1]; NMeL = CN[C@@H](CC(C)C)C(=O)O; NMeA = CN[C@@H](C)C(=O)O; Piperidide = C1CCN(*)CC1; Sar = CNCC(=O)O

Data set [1] is described as follows: Metabolic stability in human hepatic microsome. It counts as in vitro ADME. The settings on record: microsomes.
The nature of data set [2]: PAMPA (parallel artificial membrane permeability assay). It counts as in vitro ADME. The settings on record: for Papp at 18 hours, 50 µM: PAMPA. Put shortly: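 Artificial membrane was 10% (w/v) egg lecithin plus 0.5% (w/v) cholesterol in dodecane on a PVDF filter. A 10 mM DMSO stock was added at 0.5% (v/v) to donor buffer (50 mM MOPSO, pH 6.5, 5.0% glycocholic acid). After 18 h at 37 °C, LC/MS or LC/UV gave donor and acceptor levels for Pe.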
In general terms: The PAMPA barrier holds no transporters, so it reflects passive diffusion.

Setting [3] is: pH 7.4, human hepatic microsome, NADPH(+), read-out: CL NADPH(+).
Where [4] appears, read: membrane permeation rate (Pe), 50 mM MOPSO buffer pH 6.5 with 5.0% glycocholic acid, 37° C., 18 hours.
[5] abbreviates: membrane permeation rate (Pe), 50 mM MOPSO buffer pH 6.5 with 5.0% glycocholic acid, 37° C., 18 hours, read-out: iPAMPA Pe.

Regarding `CC[C@H](C)[C@H](NC(=O)[C@H](CC(C)C)NC(=O)[C@H](CC(C)C)N(C)C(=O)[C@H](Cc1cccc(Cl)c1)N(C)C(=O)[C@@H](NC(=O)[C@@H]1CC(=O)N[C@@H](Cc2ccccc2)C(=O)N[C@@H]([C@@H](C)O)C(=O)N[C@@H](CC(C)C)C(=O)N(C)[C@@H](CC(C)C)C(=O)N(C)[C@@H](C)C(=O)N(C)[C@@H](CC(C)C)C(=O)N1)[C@@H](C)CC)C(=O)N1CCCCC1` [DP-914] (FTL[NMeL][NMeA][NMeL]DI[NMePhe(3-Cl)][NMeL]LI-Piperidide; lactam N-7), the microsomal CLint at 1 uM in data set [1] (setting [3]) is 29 µL/min/mg. Moreover, in data set [2] (setting [4]), the “iPAMPA Pe” value turned out to be 1.0E−07.
The corresponding values for `CC[C@H](C)[C@H](NC(=O)[C@H](Cc1ccccc1)N(C)C(=O)[C@H](Cc1cccc(Cl)c1)N(C)C(=O)[C@H](C)N(C)C(=O)[C@@H]1CCCN1C(=O)[C@@H]1CC(=O)N[C@@H](C)C(=O)N(C)[C@@H](CC(C)C)C(=O)N(C)[C@@H](Cc2ccccc2)C(=O)N[C@@H]([C@@H](C)O)C(=O)N(C)[C@@H](Cc2ccccc2)C(=O)N[C@@H](CC(C)C)C(=O)N1)C(=O)N1CCCCC1` [DP-915] (A[NMeL][NMeF]T[NMeF]LDP[NMeA][NMePhe(3-Cl)][NMeF]I-Piperidide; lactam N-7) are 89 µL/min/mg and 1.0E−07.
On the same counts, the results for `CC[C@H](C)[C@H](NC(=O)[C@H](CC(C)C)N(C)C(=O)[C@H](CC(C)C)N(C)C(=O)[C@H](Cc1ccccc1)N(C)C(=O)[C@@H]1CC(=O)N[C@H](C(C)C)C(=O)N(C)[C@@H](Cc2cccc(Cl)c2)C(=O)N(C)[C@@H](C)C(=O)N(C)[C@@H](CC(C)C)C(=O)N[C@@H]([C@@H](C)O)C(=O)N(C)[C@@H](CC(C)C)C(=O)N1)C(=O)N1CCCCC1` [DP-916] ([dV][NMePhe(3-Cl)][NMeA][NMeL]T[NMeL]D[NMeF][NMeL][NMeL]I-Piperidide; lactam N-7) are 55 µL/min/mg and 1.0E−07.
The corresponding values for `CC[C@H](C)[C@H](NC(=O)[C@H](Cc1ccccc1)NC(=O)[C@@H](NC(=O)[C@@H]1CC(=O)N[C@H](C)C(=O)N(C)[C@@H](CC(C)C)C(=O)N[C@@H]([C@@H](C)O)C(=O)N(C)[C@@H](CC(C)C)C(=O)N(C)[C@@H](Cc2ccccc2)C(=O)N(C)[C@@H](CC(C)C)C(=O)N1)C(C)C)C(=O)N[C@H](C(=O)N1CCCCC1)[C@@H](C)CC` [DP-917] ([dA][NMeL]T[NMeL][NMeF][NMeL]DVFII-Piperidide; lactam N-7) are 177 µL/min/mg and 1.0E−07.
As for `CC[C@H](C)[C@H](NC(=O)[C@H](C)N(C)C(=O)[C@H](Cc1ccccc1)N(C)C(=O)[C@H](CC(C)C)N(C)C(=O)[C@@H]1CC(=O)N[C@@H](C)C(=O)N(C)[C@@H](Cc2ccccc2)C(=O)N(C)[C@@H](CC(C)C)C(=O)N[C@@H]([C@@H](C)O)C(=O)N(C)CC(=O)N(C)[C@@H](Cc2ccccc2)C(=O)N1)C(=O)N1CCCCC1` [DP-918] (A[NMeF][NMeL]T[Sar][NMeF]D[NMeL][NMeF][NMeA]I-Piperidide; lactam N-7), in data set [1] (setting [3]), the microsomal CLint at 1 uM is 55 µL/min/mg. Also, the Papp at 18 hours, 50 µM in data set [2] (setting [5]) was determined as 5.3 ×10⁻⁶ cm/s.
As for `CC[C@H](C)[C@H](NC(=O)[C@H](CC(C)C)NC(=O)[C@H](CC(C)C)N(C)C(=O)CN(C)C(=O)[C@@H]1CC(=O)N[C@H](C)C(=O)N[C@@H]([C@@H](C)O)C(=O)N(C)[C@@H](CC(C)C)C(=O)N[C@@H]([C@@H](C)CC)C(=O)N(C)[C@@H](CC(C)C)C(=O)N[C@@H](CC(C)C)C(=O)N1)C(=O)N1CCCCC1` [DP-919] ([dA]T[NMeL]I[NMeL]LD[Sar][NMeL]LI-Piperidide; lactam N-7), the microsomal CLint at 1 uM in data set [1] (setting [3]) is 128 µL/min/mg. Besides, the Papp at 18 hours, 50 µM in data set [2] (setting [5]) amounted to 27 ×10⁻⁶ cm/s.
Take `CC[C@H](C)[C@H](NC(=O)[C@H](Cc1ccccc1)N(C)C(=O)[C@H](CC(C)C)N(C)C(=O)[C@@H](NC(=O)[C@@H]1CC(=O)N(C)[C@@H](C)C(=O)N[C@@H]([C@@H](C)CC)C(=O)N(C)[C@@H](CC(C)C)C(=O)N[C@@H]([C@@H](C)O)C(=O)N[C@@H](CC(C)C)C(=O)N(C)[C@@H](Cc2cccc(Cl)c2)C(=O)N1)C(C)C)C(=O)N1CCCCC1` [DP-920] ([NMeA]I[NMeL]TL[NMePhe(3-Cl)]DV[NMeL][NMeF]I-Piperidide; lactam N-7): the microsomal CLint at 1 uM in data set [1] (setting [3]) came to 27 µL/min/mg. In addition, the Papp at 18 hours, 50 µM in data set [2] (setting [5]) is 0.22 ×10⁻⁶ cm/s.
Regarding `CC[C@H](C)[C@H](NC(=O)[C@H](CC(C)C)N(C)C(=O)[C@H](Cc1ccccc1)NC(=O)[C@H](Cc1ccccc1)N(C)C(=O)[C@@H]1CC(=O)N(C)[C@@H](C)C(=O)N[C@@H](C(C)C)C(=O)N[C@@H](CC(C)C)C(=O)N(C)[C@@H](Cc2ccccc2)C(=O)N[C@@H](CC(C)C)C(=O)N[C@@H]([C@@H](C)O)C(=O)N1)C(=O)N1CCCCC1` [DP-921] ([NMeA]VL[NMeF]LTD[NMeF]F[NMeL]I-Piperidide; lactam N-7), the microsomal CLint at 1 uM in data set [1] (setting [3]) came out at 88 µL/min/mg. Besides, the Papp at 18 hours, 50 µM in data set [2] (setting [5]) was found to be 0.34 ×10⁻⁶ cm/s.
Take `CC[C@H](C)[C@H](NC(=O)[C@@H](NC(=O)[C@H](Cc1ccccc1)NC(=O)[C@H](CC(C)C)N(C)C(=O)[C@@H](NC(=O)[C@@H]1CC(=O)N[C@@H](C)C(=O)N(C)[C@@H](C)C(=O)N(C)[C@@H](Cc2ccccc2)C(=O)N[C@@H]([C@@H](C)O)C(=O)N(C)[C@@H](Cc2ccccc2)C(=O)N[C@@H](CC(C)C)C(=O)N2CCC[C@H]2C(=O)N1)[C@@H](C)CC)C(C)C)C(=O)N1CCCCC1` [DP-922] (A[NMeA][NMeF]T[NMeF]LPDI[NMeL]FVI-Piperidide; lactam N-8): the microsomal CLint at 1 uM in data set [1] (human, pH 7.4, CL NADPH(+)) is 70 µL/min/mg. The Papp at 18 hours, 50 µM in data set [2] (pH 6.5) amounted to 0.12 ×10⁻⁶ cm/s.
On the same counts, the results for `CC[C@H](C)[C@H](NC(=O)[C@H](Cc1cccc(Cl)c1)N(C)C(=O)[C@H](CC(C)C)NC(=O)[C@H](C)N(C)C(=O)[C@H](CC(C)C)N(C)C(=O)[C@@H]1CC(=O)N[C@@H](Cc2ccccc2)C(=O)N(C)[C@@H](Cc2ccccc2)C(=O)N2CCC[C@H]2C(=O)N[C@@H](CC(C)C)C(=O)N(C)[C@@H](Cc2cccc(Cl)c2)C(=O)N[C@@H]([C@@H](C)O)C(=O)N[C@@H](CC(C)C)C(=O)N1)C(=O)N1CCCCC1` [DP-923] (F[NMeF]PL[NMePhe(3-Cl)]TLD[NMeL][NMeA]L[NMePhe(3-Cl)]I-Piperidide; lactam N-8) are 8 µL/min/mg and 0.1 ×10⁻⁶ cm/s.
Turning to `CC[C@H](C)[C@H](NC(=O)[C@H](CC(C)C)N(C)C(=O)CN(C)C(=O)[C@H](C)N(C)C(=O)[C@H](Cc1ccccc1)N(C)C(=O)[C@@H]1CC(=O)N[C@H](C(C)C)C(=O)N[C@@H](C(C)C)C(=O)N[C@@H]([C@@H](C)O)C(=O)N[C@@H](CC(C)C)C(=O)N[C@@H](Cc2ccccc2)C(=O)N(C)[C@@H](CC(C)C)C(=O)N(C)[C@@H](Cc2cccc(Cl)c2)C(=O)N1)C(=O)N1CCCCC1` [DP-924] ([dV]VTLF[NMeL][NMePhe(3-Cl)]D[NMeF][NMeA][Sar][NMeL]I-Piperidide; lactam N-8), the microsomal CLint at 1 uM in data set [1] (setting [3]) came to 19 µL/min/mg. Further, in data set [2] (setting [5]), the Papp at 18 hours, 50 µM came out at 0.1 ×10⁻⁶ cm/s.
As for `CC[C@H](C)[C@H](NC(=O)[C@H](CC(C)C)NC(=O)[C@@H]1CCCN1C(=O)[C@H](CC(C)C)NC(=O)[C@H](CC(C)C)N(C)C(=O)[C@@H]1CC(=O)N[C@@H](Cc2ccccc2)C(=O)N[C@@H](CC(C)C)C(=O)N(C)[C@@H](CC(C)C)C(=O)N[C@@H]([C@@H](C)O)C(=O)N(C)[C@@H](Cc2cccc(Cl)c2)C(=O)N(C)[C@@H](C)C(=O)N(C)[C@@H](CC(C)C)C(=O)N1)C(=O)N1CCCCC1` [DP-925] (FL[NMeL]T[NMePhe(3-Cl)][NMeA][NMeL]D[NMeL]LPLI-Piperidide; lactam N-8), the microsomal CLint at 1 uM in data set [1] (setting [3]) was 2 µL/min/mg. In data set [2] (setting [5]), the Papp at 18 hours, 50 µM is 0.1 ×10⁻⁶ cm/s.
As to `CC[C@H](C)[C@@H]1NC(=O)[C@H](CC(C)C)N(C)C(=O)[C@H]([C@@H](C)O)NC(=O)[C@H](CC(C)C)N(C)C(=O)[C@H](C(C)C)NC(=O)[C@H](Cc2ccccc2)N(C)C(=O)CCN(C)C(=O)C[C@@H](C(=O)N2CCC[C@H]2C(=O)N[C@H](C(=O)N(C)[C@@H](Cc2cccc(Cl)c2)C(=O)N(C)[C@@H](Cc2ccccc2)C(=O)N[C@H](C(=O)N2CCCCC2)[C@@H](C)CC)C(C)C)NC1=O` [DP-926] ([NMeβAla][NMeF]V[NMeL]T[NMeL]IDPV[NMePhe(3-Cl)][NMeF]I-Piperidide; lactam N-8), the microsomal CLint at 1 uM in data set [1] (setting [3]) amounted to 53 µL/min/mg. In data set [2] (setting [5]), the Papp at 18 hours, 50 µM came out at 0.1 ×10⁻⁶ cm/s.
With `CC[C@H](C)[C@H](NC(=O)[C@H](CC(C)C)N(C)C(=O)[C@H](CC(C)C)N(C)C(=O)[C@H](Cc1cccc(Cl)c1)N(C)C(=O)[C@@H]1CC(=O)N(C)[C@@H](C)C(=O)N[C@@H](C(C)C)C(=O)N(C)[C@@H](Cc2ccccc2)C(=O)N[C@@H]([C@@H](C)O)C(=O)N2CCC[C@H]2C(=O)N(C)[C@@H](Cc2ccccc2)C(=O)N[C@@H](CC(C)C)C(=O)N1)C(=O)N1CCCCC1` [DP-927] ([NMeA]V[NMeF]TP[NMeF]LD[NMePhe(3-Cl)][NMeL][NMeL]I-Piperidide; lactam N-8), in data set [1] (human, pH 7.4, CL NADPH(+)), the microsomal CLint at 1 uM turned out to be 5 µL/min/mg. For the same molecule, the Papp at 18 hours, 50 µM in data set [2] (pH 6.5) is 0.1 ×10⁻⁶ cm/s.
Consider `CC[C@H](C)[C@H](NC(=O)[C@H](Cc1ccccc1)N(C)C(=O)[C@H](C)N(C)C(=O)[C@@H](NC(=O)[C@@H]1CC(=O)N[C@@H](C)C(=O)N[C@@H]([C@@H](C)O)C(=O)N(C)[C@@H](CC(C)C)C(=O)N[C@@H](C(C)C)C(=O)N(C)[C@@H](Cc2cccc(Cl)c2)C(=O)N(C)[C@@H](CC(C)C)C(=O)N[C@@H](Cc2ccccc2)C(=O)N1)[C@@H](C)CC)C(=O)N1CCCCC1` [DP-928] (AT[NMeL]V[NMePhe(3-Cl)][NMeL]FDI[NMeA][NMeF]I-Piperidide; lactam N-8), for which the microsomal CLint at 1 uM in data set [1] (setting [3]) is 60 µL/min/mg. Further, the Papp at 18 hours, 50 µM in data set [2] (setting [5]) stood at 0.1 ×10⁻⁶ cm/s.

These data come from patent publication US9409952B2, “Peptide-compound cyclization method” (Chugai Seiyaku Kabushiki Kaisha, priority 2011, dated 2016).
